# Experimental data: patent US20040137389A1, “Heat-developable light-sensitive material” (priority 2002, published 2004)
# Experiment: Retention of absorbance at 415 nm after heat development, Examples 3 and 4
# Conditions: A/B×100 (after/before heat development), development 24 seconds, grain size 0.12 μm, Example 3
# Description: (§1) Each sample was thermally developed with Fuji Medical Dry Laser Imager FM-DPL Model in which the temperatures of four panel heaters were set at 112° C., 118° C., 120° C. and 120° C., respectively and which the overall development time was set at 24 seconds.
# Using a spectral photometer U-4100 (manufactured by Hitachi) equipped with an integrating sphere, the spectral absorbance of each sample was measured. The change rate of the absorbance at 415 nm of each sample before heat development and that after heat development was measured. Apart from the above samples, silver iodide-free sample was prepared, and the absorbance thereof at 415 nm was used as a base standard. The retention of absorbance of each sample was computed according to the formula mentioned below. The smaller the retention, the larger the reduction in absorption, which is preferable.
# Retention of Absorbance (%)=A/B×100
# (§2) A=(absorbance of a sample after heat development)−(absorbance of a silver iodide-free sample after heat development)
# (§3) B=(absorbance of the sample before heat development)−(absorbance of a silver iodide-free sample before heat development)
row,SMILES,Silver Iodide Absorption Retention (%)
1,CC(C)c1ccc2cnncc2c1 [6-isopropylphthalazine],more effective than phthalazine
2,"c1ccc2cnncc2c1 [phthalazine, Phthalazine]",effective for reducing the absorption intensity

# Experiment: Measurement of acid dissociation constant pKa by potentiometric titration
# Type: physicochemical
# Conditions: compound of formula (1) or (2); tetrahydrofuran/water (3/2), 25° C.; Table 2
# Description: Using an automatic potentiometric titration meter, Kyoto Electronic Industry's AT-420, the acid dissociation constant (pKa) of the conjugate acid of the compound of formula (1) in a mixed solution of tetrahydrofuran and water (3/2) was measured at 25° C.
# Using an automatic potentiometric titration meter, Kyoto Electronic Industry's AT-420, the acid dissociation constant (pKa) of the conjugate acid of the silver iodide complex-forming agent in a mixed solution of tetrahydrofuran and water (3/2) was measured at 25° C.
row,SMILES,pKa of Conjugate Acid
1,O=C(Nc1ccncc1)c1ccccc1 [Sample F-325],4.2
2,Cc1nnc(C)c(C)c1C [Sample F-404],5.4
3,c1ccc(-c2ccnnc2)cc1 [Sample F-405],3.6

# Same assay, conditions: conjugate acid of the silver iodide complex-forming agent; tetrahydrofuran/water (3/2), 25° C.; Table 5
row,SMILES,pKa
1,O=C(Nc1ccncc1)c1ccccc1 [Sample F-325],4.2
2,Cc1nnc(C)c(C)c1C [Sample F-404],5.4
3,c1ccc(-c2ccnnc2)cc1 [Sample F-405],3.6

# Same assay, conditions: conjugate acid of the silver iodide complex-forming agent; tetrahydrofuran/water (3/2), 25° C.; Table 6
row,SMILES,pKa
1,O=C(Nc1ccncc1)c1ccccc1 [Sample F-325],4.2

# Same assay, conditions: conjugate acid of the silver iodide complex-forming agent; tetrahydrofuran/water (3/2), 25° C.; Table 8
row,SMILES,pKa
1,O=C(Nc1ccncc1)c1ccccc1 [Sample F-325],4.2
2,Cc1nnc(C)c(C)c1C [Sample F-404],5.4
3,c1ccc(-c2ccnnc2)cc1 [Sample F-405],3.6

# Same assay, conditions: conjugate acid; tetrahydrofuran/water (3/2), 25° C.; Table 1
row,SMILES,Compound of Formula (1) or (2) pKa
1,O=C(Nc1ccncc1)c1ccccc1 [Sample F-325],4.2

# Same assay, conditions: conjugate acid; tetrahydrofuran/water (3/2), 25° C.; Table 3
row,SMILES,Silver Iodide Complex-forming Agent pKa
1,O=C(Nc1ccncc1)c1ccccc1 [Sample F-325],4.2

# Same assay, conditions: tetrahydrofuran/water (3/2) mixed solution, compound of formula (1) or (2), 25° C., Table 2, read-out: pKa of Conjugate Acid
row,SMILES,pKa
1,c1cc2cnncc2s1 [Sample F-421],4.2

# Experiment: not given
# Conditions: Hammett's substituent constants of Y11 to Y14; constants from Chemical Review, 1991, Vol. 91; cited from earlier work
row,SMILES,Total Sum of σ p
1,Cc1cccc2c(=O)[nH]ncc12 [Sample I-1],−0.17
2,Cc1ccc2c(=O)[nH]ncc2c1 [Sample I-2],−0.17
3,Cc1ccc2cn[nH]c(=O)c2c1 [Sample I-3],−0.17
4,Cc1cccc2cn[nH]c(=O)c12 [Sample I-4],−0.17
5,CCc1cccc2c(=O)[nH]ncc12 [Sample I-5],−0.15
6,CCc1ccc2c(=O)[nH]ncc2c1 [Sample I-6],−0.15
7,CCc1ccc2cn[nH]c(=O)c2c1 [Sample I-7],−0.15
8,CCc1cccc2cn[nH]c(=O)c12 [Sample I-8],−0.15
9,CCCc1ccc2c(=O)[nH]ncc2c1 [Sample I-9],−0.13
10,CCCc1cccc2c(=O)[nH]ncc12 [Sample I-10],−0.13
11,CCCc1ccc2cn[nH]c(=O)c2c1 [Sample I-11],−0.13
12,CCCc1cccc2cn[nH]c(=O)c12 [Sample I-12],−0.13
13,CC(C)c1ccc2c(=O)[nH]ncc2c1 [Sample I-13],−0.15
14,CCCCc1ccc2c(=O)[nH]ncc2c1 [Sample I-14],−0.16
15,O=c1[nH]ncc2cc(-c3ccccc3)ccc12 [Sample I-15],−0.01
16,CC(C)Cc1ccc2c(=O)[nH]ncc2c1 [Sample I-16],−0.12
17,CC(C)(C)c1ccc2c(=O)[nH]ncc2c1 [Sample I-17],−0.20
18,Cc1cc2cn[nH]c(=O)c2cc1C [Sample I-18],−0.34
19,Cc1ccc2c(=O)[nH]ncc2c1C [Sample I-19],−0.34
20,Cc1cc2c(=O)[nH]ncc2c(C)c1C [Sample I-20],−0.51
21,CCc1cc2cn[nH]c(=O)c2cc1C [Sample I-21],−0.32
22,CC(C)c1ccc2cn[nH]c(=O)c2c1 [Sample I-22],−0.15
23,CCCCc1ccc2cn[nH]c(=O)c2c1 [Sample I-23],−0.16
24,CCC(C)c1ccc2cn[nH]c(=O)c2c1 (stereo not shown) [Sample I-24],−0.12
25,CC(C)Cc1ccc2cn[nH]c(=O)c2c1 [Sample I-25],−0.12
26,COc1cccc2c(=O)[nH]ncc12 [Sample I-26],−0.27

row,SMILES,Total Sum of σ p
1,COc1ccc2c(=O)[nH]ncc2c1 [Sample I-27],−0.27
2,COc1ccc2cn[nH]c(=O)c2c1 [Sample I-28],−0.27
3,COc1cccc2cn[nH]c(=O)c12 [Sample I-29],−0.27
4,CCOc1cccc2c(=O)[nH]ncc12 [Sample I-30],−0.24
5,CCOc1ccc2c(=O)[nH]ncc2c1 [Sample I-31],−0.24
6,CCOc1ccc2cn[nH]c(=O)c2c1 [Sample I-32],−0.24
7,CCOc1cccc2cn[nH]c(=O)c12 [Sample I-33],−0.24
8,CCCOc1cccc2c(=O)[nH]ncc12 [Sample I-34],−0.32
9,CCCOc1ccc2c(=O)[nH]ncc2c1 [Sample I-35],−0.32
10,CCCOc1ccc2cn[nH]c(=O)c2c1 [Sample I-36],−0.32
11,CCCOc1cccc2cn[nH]c(=O)c12 [Sample I-37],−0.32
12,CC(C)Oc1ccc2c(=O)[nH]ncc2c1 [Sample I-38],−0.33
13,CCCCOc1ccc2c(=O)[nH]ncc2c1 [Sample I-39],−0.34
14,COc1cc2cn[nH]c(=O)c2cc1OC [Sample I-40],−0.54
15,COc1ccc2c(=O)[nH]ncc2c1OC [Sample I-41],−0.54
16,COc1cc2c(=O)[nH]ncc2c(OC)c1OC [Sample I-42],−0.81
17,O=c1[nH]ncc2cc(Oc3ccccc3)ccc12 [Sample I-47],−0.03
18,O=c1[nH]ncc2ccc(Oc3ccccc3)cc12 [Sample I-48],−0.03
19,CCN(CC)c1ccc2c(=O)[nH]ncc2c1 [Sample I-59],−0.72
20,Nc1ccc2c(=O)[nH]ncc2c1 [Sample I-60],−0.66
21,CC(=O)Nc1ccc2c(=O)[nH]ncc2c1 [Sample I-61],0.00
22,O=C(Nc1ccc2c(=O)[nH]ncc2c1)c1ccccc1 [Sample I-62],−0.19
23,O=c1[nH]ncc2cc(NS(=O)(=O)c3ccccc3)ccc12 [Sample I-65],0.01
24,CC(=O)Oc1ccc2cn[nH]c(=O)c2c1 [Sample I-69],0.31
25,CN(C)c1ccc2cn[nH]c(=O)c2c1 [Sample I-74],−0.83

# Experiment: Difference between light absorption intensity before and after heat development (absorbance at 415 nm), Examples 1 and 2
# Conditions: A/B×100 (after/before heat development, silver iodide-free sample as base), development 24 seconds, Example 1
# Description: as §1
# Using a spectral photometer U-4100 (manufactured by Hitachi) equipped with an integrating sphere, the spectral absorbance of each sample was measured. […] The change rate of the absorbance at 415 nm of each of samples 11 to 20 before heat development and that after heat development was measured. Apart from the above samples, silver iodide-free sample was prepared, and the absorbance thereof at 415 nm was used as a base standard. The absorbance reduction rate of each sample was computed according to the formula mentioned below.
# Absorbance reduction rate (%)=A/B×100
# as §2, §3
row,SMILES,Absorbance Change Rate (%)
1,CC(C)c1ccc2cnncc2c1 [6-isopropylphthalazine],may lower the absorption intensity
